As usually defined, the IC50 is the point on the concentration scale where inhibition reaches its midpoint.

The text below walks through data of ChEMBL document CHEMBL1136903, “Spiroimidazolidinone NPC1L1 inhibitors. 1: Discovery by 3D-similarity-based virtual screening” (Bioorg Med Chem Lett, 2009).

The assay concerns the target T1, NPC1-like intracellular cholesterol transporter 1 (Homo sapiens, UniProt Q9UHC9).
T1 sequence (Q9UHC9 whole entry): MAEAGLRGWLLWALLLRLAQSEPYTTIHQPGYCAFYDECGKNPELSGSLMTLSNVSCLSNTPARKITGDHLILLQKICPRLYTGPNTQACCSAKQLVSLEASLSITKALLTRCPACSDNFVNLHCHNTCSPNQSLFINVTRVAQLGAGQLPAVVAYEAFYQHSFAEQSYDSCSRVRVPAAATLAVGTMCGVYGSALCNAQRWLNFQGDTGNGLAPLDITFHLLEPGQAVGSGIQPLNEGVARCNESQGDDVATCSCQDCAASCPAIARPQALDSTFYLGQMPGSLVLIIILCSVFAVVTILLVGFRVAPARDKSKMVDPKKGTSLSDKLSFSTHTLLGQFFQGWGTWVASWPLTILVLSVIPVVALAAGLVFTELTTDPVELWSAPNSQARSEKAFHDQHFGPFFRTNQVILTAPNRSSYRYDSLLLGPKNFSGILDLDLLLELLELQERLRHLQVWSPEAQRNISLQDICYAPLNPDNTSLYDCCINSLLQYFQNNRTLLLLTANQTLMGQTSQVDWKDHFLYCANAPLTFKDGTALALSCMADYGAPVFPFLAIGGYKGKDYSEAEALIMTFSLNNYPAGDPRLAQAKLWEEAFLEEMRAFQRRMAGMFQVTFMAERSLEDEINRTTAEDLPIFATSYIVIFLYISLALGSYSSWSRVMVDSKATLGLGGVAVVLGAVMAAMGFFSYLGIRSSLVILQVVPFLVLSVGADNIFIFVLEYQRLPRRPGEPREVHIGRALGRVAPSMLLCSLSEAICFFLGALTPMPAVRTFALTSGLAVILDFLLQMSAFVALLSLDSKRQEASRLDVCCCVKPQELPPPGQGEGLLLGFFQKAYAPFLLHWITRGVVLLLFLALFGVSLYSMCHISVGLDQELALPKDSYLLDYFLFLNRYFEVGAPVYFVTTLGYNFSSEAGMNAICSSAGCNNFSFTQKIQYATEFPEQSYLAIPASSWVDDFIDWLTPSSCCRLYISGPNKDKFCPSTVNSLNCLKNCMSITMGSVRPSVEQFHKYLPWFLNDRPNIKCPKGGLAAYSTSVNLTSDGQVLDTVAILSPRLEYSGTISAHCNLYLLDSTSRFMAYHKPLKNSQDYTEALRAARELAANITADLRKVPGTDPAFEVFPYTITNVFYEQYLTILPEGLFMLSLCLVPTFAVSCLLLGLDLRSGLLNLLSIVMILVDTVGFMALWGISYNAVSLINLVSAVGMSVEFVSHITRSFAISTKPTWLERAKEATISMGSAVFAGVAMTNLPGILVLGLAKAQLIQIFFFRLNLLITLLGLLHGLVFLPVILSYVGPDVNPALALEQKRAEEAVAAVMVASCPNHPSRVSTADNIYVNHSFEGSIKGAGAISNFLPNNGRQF
In words: Displacement of [35S](2S,3S,4S,5R,6S)-6-(4-((2S,3R)-3-((S)-3-(4-fluorophenyl)-3-hydroxypropyl)-1-(4-(3-(methylsulfonamido)prop-1-ynyl)phenyl)-4-oxoazetidin-2-yl)phenoxy)-3,4,5-trihydroxytetrahydro-2H-pyran-2-carboxylic acid from human recombinant NPC1L1 expressed in HEK293 cells. It is filed as cell-based. In general terms: In a radioligand displacement assay an active substance lowers the binding of a labelled ligand.

Each structure is given as a SMILES string.

As to `CC(C)(C)c1ccc(C(=O)NS(=O)(=O)N2CC3(CCN(C(=O)OCCc4ccccc4)CC3)c3ccccc32)cc1`, the IC50 is 79 µM.
As for `CC(C)CNC(=O)CN1CN(c2ccccc2)C2(CCN(C(=O)c3ccc(C(C)(C)C)cc3)CC2)C1=O`, the IC50 came to 4.4 µM.
Then `Cn1c(N(Cc2ccc(OCCCC(=O)O)cc2)[C@H]2CC[C@H](C(C)(C)C)CC2)nc2cc(OC3CCCC3)ccc21`, with 7.4 µM.
Regarding `CC1(C(=O)O)COc2ccc(CCN(CCCCC3CCCCC3)C(=O)Nc3ccc(SC(F)(F)F)cc3)cc2O1` (stereo unspecified), the IC50 came to 4.6 µM.
With `Cc1ccc(CCC2CCC(CNC(=O)c3cn[nH]c3)CN2C(=O)OCc2ccccc2)cc1` (stereo unspecified), the half-inhibitory concentration (IC50) stood at 81 µM.
For the molecule `O=C(c1cccc2ccccc12)N1CC(C(=O)N2CCC3(C=Cc4ccccc43)CC2)CC(c2ccccc2)C1` (stereo unspecified), the IC50 is 0.39 µM.
